According to US4073918A, “Phenoxyalkylcarboxylic acid amides of substituted thiazolidinecarboxylic acids and their utilization in medicaments” (Ludwig Merckle KG, priority 1974, dated 1978):

Assays:
hypercholesteremic rat = experiment: Hypercholesteremic test (serum cholesterol and triglycerides); format: in vivo; details: for Serum Cholesterol / Serum Triglycerides: hypercholesteremic rat (2% cholesterol, 1% cholic acid diet); for Serum Cholesterol, Lowering % / Serum Triglycerides, Lowering %: hypercholesteremic rat, vs control
Description: (§1) In contrast therewith, the inventive compounds having the general formula (I) show based on the normal lipemic as well as the hypercholesteremic rat models, a distinct anti-lipemic and, in particular anti-cholesteremic effect. […] This activity loss of clofibrate on the hyperlipemic demands is also found a number of times in the literature. The antilipemic activity of the inventive compounds, as well as that of clofibrate as the reference substance, was determined on a normal lipemic CFY-rat during an examination time period of 14 days. During this time, the animals received a normal laboratory diet. (Spratt's No. 1).
(§2) After a 4-day acclimatization period the animals orally received the test compound as a suspension in 1% tragacanth-solution, or the vehicle alone (control group). The control-group consisted of 20 animals, while the test groups contained 10 animals. 24 hours after the last administration, blood samples were taken for determining the serum triglycerides and serum cholesterol level.
The hypercholesteremic test was carried out on the same animals and under the same examining conditions, as was carried out in the normal lipemic test. The animals received a normal laboratory diet (Spratt's No. 2), having added thereto 2% cholesterol and 1% cholic acid.

laboratory rats [1] = details: Literature reference; 20160 min; cited from earlier work
normal lipemic CFY-rat = experiment: Normolipemic test (serum cholesterol and triglycerides); format: in vivo; details: 14 days; for Serum Cholesterol / Serum Triglycerides: 24 h after last administration; for Serum Cholesterol, Lowering % / Serum Triglycerides, Lowering %: vs control
Description: as §1, §2

[2] = in vivo; cited from earlier work
[3] = tested on: galactosamine-hepatitis-model; details: Arzneimittel-Forschung 23, 56, 1973, cited from earlier work
[4] = Pharmacological screening for 51 pharmacological parameters; format: in vivo
mouse = experiment: Pharmacological screening, abdominal tone in the mouse; format: in vivo; details: 100 mg/kg intraperitoneal
[5] = Acute oral toxicity (LD50, Litchfield and Wilcoxon); format: in vivo; details: in vivo, rat, suspension in 0.5% aqueous Tween 80, observation 14 days
Description: (§3) The acute oral toxicity of the inventive compounds of Examples 18 and 23 was tested on, respectively, five male and female laboratory rats each having a weight of 200 ± 20g. The compounds tested were prepared as suspension in 0.5 %-aqueous Tween 80-solution. The observation time period was 14 days. The determination of the LD50 -values was carried out pursuant to the methods of Litchfield and Wilcoxon.

laboratory rats [6] = experiment: as above; format: in vivo; details: rat, 14 days, Litchfield and Wilcoxon
Description: as §3

SMILES	Serum Cholesterol (hypercholesteremic rat; 300 mg/kg oral) [mg %]	Serum Triglycerides (hypercholesteremic rat; 300 mg/kg oral) [mg %]	Serum Cholesterol, Lowering % (hypercholesteremic rat; 300 mg/kg oral) [%]	Serum Cholesterol (normal lipemic CFY-rat; 300 mg/kg oral) [mg %]	Serum Triglycerides (normal lipemic CFY-rat; 300 mg/kg oral) [mg %]	Serum Cholesterol, Lowering % (normal lipemic CFY-rat; 300 mg/kg oral) [%]	Serum Triglycerides, Lowering % (normal lipemic CFY-rat; 300 mg/kg oral) [%]	Serum Cholesterol (hypercholesteremic rat; 100 mg/kg oral) [mg %]	Serum Triglycerides (hypercholesteremic rat; 100 mg/kg oral) [mg %]	Serum Cholesterol (normal lipemic CFY-rat; 100 mg/kg oral) [mg %]	Serum Triglycerides (normal lipemic CFY-rat; 100 mg/kg oral) [mg %]	Serum Triglycerides, Lowering % (normal lipemic CFY-rat; 100 mg/kg oral) [%]	side effects in pharmacological screening [4]	Serum Cholesterol, Lowering % (hypercholesteremic rat; 100 mg/kg oral) [%]	other results
CCOC(=O)C(C)(C)Oc1ccc(Cl)cc1 [Clofibrate, 2-(p-chlorophenoxy)-2-methylpropionic acid ethyl ester, reference compound]	347.9	75.6	3.0	56.1	66.5	27.0	46.3	–	–	–	–	–	–	–	activity on the hypercholesteremic models (in words) (hypercholesteremic rat; hypercholesteremic models): shows no more activity; Serum Triglycerides, Lowering % (hypercholesteremic rat; 300 mg/kg oral): 12.5%; LD50 (laboratory rats [1]): ~1200 mg/kg
CC(C)(S)[C@@H](N)C(=O)O [D-penicillamine]	–	–	–	–	–	–	–	–	–	–	–	–	–	–	known side effects [2]: allergic reactions, leukopenia or gastrointestinal disturbances; influence on lipid material exchange (in words) [3]: satisfactory influence on lipid material exchange; liver protective effect; release of SH-groups, stimulation of nucleic acids and protein synthesis (in words) ([3]; galactosamine-hepatitis-model): These properties are also shown by D-penicillamine
CC(C)(Oc1ccc(Cl)cc1)C(=O)NCC1NC(C(=O)O)C(C)(C)S1 (centres unmarked) [Example 17]	296.1	96.4	7.2	81.5	91.2	13.1	–	353.8	85.0	81.8	77.3	11.2	no special side effects were seen	–	Serum Triglycerides, Lowering % (hypercholesteremic rat; 100 mg/kg oral): 1.2%; Serum Cholesterol, Lowering % (normal lipemic CFY-rat; 100 mg/kg oral): 12.8%
CC(Oc1ccc(Cl)cc1)C(=O)N1C(C(=O)O)C(C)(C)SC1(C)C (centres unmarked) [Example 18, 2,2,5,5-tetramethyl-3-2-(p-chlorophenoxy)propionyl!-thiazolidine-4-carboxylic acid]	470.3	72.4	20.5	95.3	82.5	–	12.6	412.9	71.4	95.8	68.7	27.2	no special side effects were seen	30.2	abdominal tone (mouse): a small reduction of the abdominal tone was observed; LD50 at 336 h [5]: > 5000 mg/kg
CC(C)(Oc1ccc(Cl)cc1)C(=O)N1C(C(=O)O)C(C)(C)SC1(C)C (centres unmarked) [Example 19]	595.6	66.0	–	82.0	72.7	4.9	23.0	549.1	65.9	93.1	75.2	20.3	–	7.1	–
CC1(C)SC(C)(C)N(C(=O)COc2ccc(Cl)cc2)C1C(=O)O (centres unmarked) [Example 20, 2,2,5,5-tetramethyl-3-(p-chlorophenoxyacetyl)-thiazolidine-4-carboxylic acid]	479.6	92.2	18.9	73.0	66.0	15.3	30.1	503.9	88.1	87.8	67.6	28.4	–	14.8	–
CC(C)(Oc1ccc(Cl)cc1)C(=O)NCC1SC(C)(C)C(C(=O)O)N1C(=O)COc1ccc(Cl)cc1 (centres unmarked) [Example 21, 2-2-(p-chlorophenoxy)-2-methyl-propionylamidomethyl!-5,5-dimethyl-3-(p-chlorophenoxyacetyl)-thilazolidine-4-carboxylic acid]	465.1	41.3	–	90.8	72.4	5.9	–	501.2	51.0	89.4	59.1	11.4	no special side effects were seen	–	Serum Triglycerides, Lowering % (hypercholesteremic rat; 100 mg/kg oral): 5.9%; Serum Triglycerides, Lowering % (hypercholesteremic rat; 300 mg/kg oral): 23.9%; Serum Cholesterol, Lowering % (normal lipemic CFY-rat; 100 mg/kg oral): 7.3%
CC1(C)SC2(CCCCC2)N(C(=O)COc2ccc(Cl)cc2)C1C(=O)O (centres unmarked) [Example 23]	–	–	–	–	–	–	–	–	–	–	–	–	–	–	LD50 at 336 h [5]: 4350 mg/kg; Effective limits (of LD50) (laboratory rats [6]): 3680 to 5130 mg/kg
